From patent publication US20100179061A1, “PLANT GROWTH PROMOTER” (Nisshin Pharma Inc., priority 2007, published 2010) come the findings set out here.

One series deals with Buckwheat. Kind of series: Growth promotion effect test V of water-solubilized coenzyme Q10. In kind it is in vivo. The conditions noted are these: same way as test IV (CoQ10 1 ppm). As to the method: (§1) A required number of petri dishes were prepared, the Kimtowel was matted on the each petri dish, 100 mL of the growth-promoting agent in Example 3 was poured thereon, and 40 seeds (produced by Noguchi Seed and Seedling Laboratory) of the plants described in Table 4 were placed thereon. These petri dishes were stored at room temperature under the light shielding condition. After 7 days, sprouts were collected, and the total length of the plants described in Table 4 was measured. The required number of petri dishes was prepared, and the growth-promoting effect on seeds (produced by Noguchi Seed and Seedling Laboratory) of the plants described in Table 5 was examined in the same way as in Growth promotion effect test IV of water-solubilized coenzyme Q10. 30 seeds of wheat were examined. Buckwheat and snow peas were stored at room temperature under the light shielding condition, and collected after 8 days. Spinach was stored at room temperature under the light shielding condition, and collected after 9 days.

A further series deals with Chives. The series is described as above. The following applies: same way as test IV (CoQ10 1 ppm). Type of series: in vivo. As to the method:
as §1

A further series concerns Wheat. The series is described as above. Type of series: in vivo. The following applies: 30 seeds, same way as test IV (CoQ10 1 ppm). As to the method: as §1
The subject of another series is Snow peas. Described as above. In kind it is in vivo. The conditions noted are these: same way as test IV (CoQ10 1 ppm). As to the method: as §1
In the next series the test system is Green onions. Described as above. The following applies: same way as test IV (CoQ10 1 ppm). Type of series: in vivo. As to the method:
as §1

Series [1] can be described thus: Precipitation of coenzyme Q10 in the growth-promoting agent. In kind it is physicochemical. The conditions noted are these: growth-promoting agent diluted with city water, up to 100 ppm. As to the method:
First, 1.25 g of water-solubilized coenzyme Q10 (Aqua Q10-P40 containing coenzyme Q10 in an amount of 40% by mass manufactured by Nisshin Pharma Inc.) was diluted using 500 ml of city water to prepare a solution of 1000 ppm of coenzyme Q10. This was diluted with city water to prepare a growth-promoting agent in a solubilized form containing coenzyme Q10 (sometimes described as CoQ10) in the amount of 10 ppm or 100 ppm.

Another series deals with Komatsuna. Kind of series: Growth promotion effect test IV of water-solubilized coenzyme Q10. Type of series: in vivo. The following applies: growth-promoting agent in Example 3 (CoQ10 1 ppm), after 7 days. Here is the method: (§2) A required number of petri dishes were prepared, the Kimtowel was matted on the each petri dish, 100 mL of the growth-promoting agent in Example 3 was poured thereon, and 40 seeds (produced by Noguchi Seed and Seedling Laboratory) of the plants described in Table 4 were placed thereon. These petri dishes were stored at room temperature under the light shielding condition. After 7 days, sprouts were collected, and the total length of the plants described in Table 4 was measured. The growth rate was calculated based on the following formula (A growth rate was calculated by the same way described above): [(A−B)/B]×100, wherein A denotes a measured value of the total length of the plant cultivated in the presence of the growth-promoting agent containing CoQ10, and B denotes the measured value of the total length of the plant as the control.

The next series concerns Crown daisy. Described as above. The conditions noted are these: growth-promoting agent in Example 3 (CoQ10 1 ppm), after 7 days. Type of series: in vivo. As to the method:
as §2

The next series concerns Burdock. The series is described as above. The following applies: growth-promoting agent in Example 3 (CoQ10 1 ppm), after 7 days. In kind it is in vivo. As to the method: as §2
The next series relates to Spinach. The series is described as above. The conditions noted are these: growth-promoting agent in Example 3 (CoQ10 1 ppm), after 7 days. In kind it is in vivo. Here is the method: as §2
Another series relates to radish sprouts. The experiment in a line: Growth promotion effect test I of water-solubilized coenzyme Q10. The conditions noted are these: high concentration of 100 ppm of coenzyme Q10. In kind it is in vivo. Here is the method:
A Kimtowel was matted on a petri dish, 100 mL of a growth-promoting agent in Example 1 was poured thereon, and 20 seeds of radish sprouts (produced by Noguchi Seed and Seedling Laboratory) were placed thereon. This petri dish was stored at room temperature under a light shielding condition. After 7 days, the sprouts were collected, and a total length and a root length of the radish sprouts were measured. Data as the control was a result obtained by measuring the total length of the plant in the same way as described above, except that city water was used in place of the growth-promoting agent (data as the control described below was a result obtained by the same way described above). Numerical values in the Table represent a mean of measured values unless otherwise explained (Numerical values in the Table described below represent the same described above). A growth rate was calculated based on the following formula (Numerical A growth rate was calculated by the same way described above): [(A−B)/B]×100, wherein A denotes a measured value of the total length of the plant cultivated in the presence of the growth-promoting agent containing coenzyme Q10, and B denotes a measured value of the total length of the plant as the control plant.

The mark [2] stands for this setting: room temperature, light shielding, collected after 8 days.
Setting [3] is: room temperature, light shielding.

With `COC1=C(OC)C(=O)C(C/C=C(\C)CC/C=C(\C)CC/C=C(\C)CC/C=C(\C)CC/C=C(\C)CC/C=C(\C)CC/C=C(\C)CC/C=C(\C)CC/C=C(\C)CCC=C(C)C)=C(C)C1=O` [CoQ10, coenzyme Q10], the Growth increase rate in the series on Buckwheat (after 8 days, versus control) is on record as 12.8%; in the series with Chives (versus control), 22.4%; in the series with Wheat (versus control), 44.6%; in the series with Snow peas (after 8 days, versus control), 17.1%; in the series on Green onions (versus control), 19.4%; in the series with Komatsuna (versus control) it was 15.6%. Also, the results for the Growth increase rate with Crown daisy (versus control), in the series with Burdock (versus control) and in the series on Spinach (versus control) were 17.9%, 12.7% and 10.5%, respectively. Also, the “Measured value (total length)” value with Buckwheat (setting [2]) worked out at 25.01 cm; with Chives (setting [3]), 2.90 cm; with Wheat (setting [3]) it was 14.16 cm; with Snow peas (setting [2]) it was 29.31 cm; in the series on Green onions (setting [3]), 3.02 cm; in the series on Komatsuna (setting [3]), 8.87 cm. Moreover, the entries for the “Measured value (total length)” value in the series with Crown daisy (setting [3]), in the series on Burdock (setting [3]) and in the series with Spinach (setting [3]) were 5.46 cm, 4.96 cm and 4.22 cm, respectively. In addition, in [1], the “precipitation of coenzyme Q10” value is “not precipitated”. Besides, the concentration disorder result in the series with radish sprouts was “without causing a concentration disorder”.
